Source: US20230081390A1, “INHIBITORS OF RAF KINASES” (Kinnate Biopharma Inc., priority 2019, published 2023)

Key:
human RAF1 = human RAF1 (Homo sapiens, UniProt P04049); assay: Protein kinase assay (33P-ATP filter binding), human RAF1, 10-dose IC50; assay type: biochemical; details: MEK1 (K97R) substrate 3 micromolar, ATP 10 micromolar, read-out: RAF-1 IC50
Summary of the method: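 Radiometric filter-binding format: 10 µM ATP, 3 µM MEK1 (K97R) as substrate for human RAF1, 2 hr at room temperature in 20 mM HEPES pH 7.5 with 10 mM MgCl2. Compounds were dispensed acoustically from DMSO. IC50 came from percent kinase activity relative to vehicle over a 10-dose series.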

human BRAF = human BRAF (Homo sapiens, UniProt P15056); assay: Protein kinase assay (33P-ATP filter binding), human BRAF, 10-dose IC50; assay type: biochemical; details: MEK1 (K97R) substrate 1 micromolar, ATP 25 micromolar, read-out: B-RAF IC50
Description: Protein kinase assay: Assay platform was used to measure kinase/inhibitor interactions as described previously (Anastassiadis et al., 2011). In brief, for each reaction, kinase and substrate were mixed in a buffer containing 20 mM HEPES (pH 7.5), 10 mM MgCl2, 1 mM EGTA, 0.02% Brij35, 0.02 mg/mL BSA, 0.1 mM Na3VO4, 2 mM DTT, and […]. All compounds were solubilized in DMSO. Compounds were then added to each reaction mixture via acoustic dispense using an ECHO 550 nanoliter dispenser. For human RAF1 testing, human MEK1 (K97R) was used as a substrate at a concentration of 3 micromolar, with a final ATP concentration of 10 micromolar. For human BRAF testing, human MEK1 (K97R) was used as a substrate at 1 micromolar concentration, with a final ATP concentration of 25 micromolar. […] After a 20-min incubation, ATP (Sigma-Aldrich, St. Louis, Mo. 63178) and [g33P] ATP (specific activity 10 microCi/microliter) purchased at PerkinElmer (Boston, Mass., 02118 Cat #BLU 003H250UC) were added at a final total concentration of […]. Reactions were carried out at room temperature for 2 hr and spotted onto P81 ion exchange cellulose chromatography paper (Reaction Biology). Filter paper was washed in 0.75% phosphoric acid to remove unincorporated ATP. The percent remaining kinase activity relative to a vehicle-containing (DMSO) kinase reaction was calculated for each kinase/inhibitor pair. IC50 values were calculated using Prism 5 (GraphPad).

human BRAF, sequence (P15056 whole entry): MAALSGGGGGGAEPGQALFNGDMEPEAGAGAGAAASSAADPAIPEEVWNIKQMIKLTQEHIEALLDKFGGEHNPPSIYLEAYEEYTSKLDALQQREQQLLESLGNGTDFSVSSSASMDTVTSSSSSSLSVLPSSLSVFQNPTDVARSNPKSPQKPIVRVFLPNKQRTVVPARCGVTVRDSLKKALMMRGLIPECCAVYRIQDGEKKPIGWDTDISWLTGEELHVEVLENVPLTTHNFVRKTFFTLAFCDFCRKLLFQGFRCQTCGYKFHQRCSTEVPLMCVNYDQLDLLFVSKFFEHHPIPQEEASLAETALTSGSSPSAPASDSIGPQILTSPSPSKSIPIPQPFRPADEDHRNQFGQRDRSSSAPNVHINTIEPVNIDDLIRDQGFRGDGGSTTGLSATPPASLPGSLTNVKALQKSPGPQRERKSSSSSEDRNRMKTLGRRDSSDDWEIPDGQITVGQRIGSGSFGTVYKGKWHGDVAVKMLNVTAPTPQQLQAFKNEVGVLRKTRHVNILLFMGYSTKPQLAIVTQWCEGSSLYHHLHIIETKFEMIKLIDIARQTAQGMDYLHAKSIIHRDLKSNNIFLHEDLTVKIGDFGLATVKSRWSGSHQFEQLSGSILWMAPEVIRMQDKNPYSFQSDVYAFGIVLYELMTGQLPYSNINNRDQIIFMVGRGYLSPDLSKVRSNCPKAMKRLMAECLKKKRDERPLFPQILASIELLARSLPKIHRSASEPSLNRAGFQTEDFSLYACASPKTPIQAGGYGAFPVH
human RAF1, sequence (P04049 whole entry): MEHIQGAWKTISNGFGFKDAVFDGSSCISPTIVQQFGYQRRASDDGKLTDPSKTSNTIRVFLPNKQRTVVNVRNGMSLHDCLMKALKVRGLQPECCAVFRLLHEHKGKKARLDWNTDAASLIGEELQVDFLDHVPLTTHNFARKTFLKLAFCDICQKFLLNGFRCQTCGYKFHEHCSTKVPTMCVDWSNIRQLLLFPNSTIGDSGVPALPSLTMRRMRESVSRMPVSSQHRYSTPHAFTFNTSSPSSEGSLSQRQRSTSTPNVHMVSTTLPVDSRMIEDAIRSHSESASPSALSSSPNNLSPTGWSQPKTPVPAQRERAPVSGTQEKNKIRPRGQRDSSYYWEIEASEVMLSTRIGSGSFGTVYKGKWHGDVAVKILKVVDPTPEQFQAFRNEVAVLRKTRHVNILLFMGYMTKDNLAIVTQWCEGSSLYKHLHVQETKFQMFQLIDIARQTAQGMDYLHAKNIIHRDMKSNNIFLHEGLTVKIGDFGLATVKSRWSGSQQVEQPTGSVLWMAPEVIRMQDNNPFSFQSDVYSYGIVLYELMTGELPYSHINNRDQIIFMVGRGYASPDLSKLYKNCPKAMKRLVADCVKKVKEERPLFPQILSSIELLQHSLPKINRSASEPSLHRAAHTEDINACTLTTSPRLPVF

Row | Compound | IC50 (human RAF1) | IC50 (human BRAF)
1 | Cc1cc(F)c(NC(=O)N2CCC(C(F)(F)F)C2)cc1-c1cc(OCCO)nc(N2CCOCC2)c1 (racemic) [Example 3, (RS)-N-(2-fluoro-5-(2-(2-hydroxyethoxy)-6-morpholinopyridin-4-yl)-4-methylphenyl)-3-(trifluoromethyl)pyrrolidine-1-carboxamide] | < 10 nM | 10 to 100 nM
2 | Cc1cc(F)c(NC(=O)N2CCCC(C(F)(F)F)C2)cc1-c1cc(OCCO)nc(N2CCOCC2)c1 (racemic) [Example 4, (RS)-N-(2-fluoro-5-(2-(2-hydroxyethoxy)-6-morpholinopyridin-4-yl)-4-methylphenyl)-3-(trifluoromethyl)piperidine-1-carboxamide] | < 10 nM | 10 to 100 nM
3 | Cc1cc(F)c(NC(=O)N2CCC(C(C)(C)C)C2)cc1-c1cc(OCCO)nc(N2CCOCC2)c1 (racemic) [Example 5, (RS)-3-(tert-butyl)-N-(2-fluoro-5-(2-(2-hydroxyethoxy)-6-morpholinopyridin-4-yl)-4-methylphenyl)pyrrolidine-1-carboxamide] | < 10 nM | 10 to 100 nM
4 | Cc1cc(F)c(NC(=O)N2CCNC(C(F)(F)F)C2)cc1-c1cc(OCCO)nc(N2CCOCC2)c1 (racemic) [Example 7, (RS)-N-(2-fluoro-5-(2-(2-hydroxyethoxy)-6-morpholinopyridin-4-yl)-4-methylphenyl)-3-(trifluoromethyl)piperazine-1-carboxamide] | < 10 nM | 100 to 1000 nM
5 | Cc1cc(F)c(NC(=O)N2CCCC(C(C)(C)C)C2)cc1-c1cc(OCCO)nc(N2CCOCC2)c1 (racemic) [Example 8, (RS)-3-(tert-butyl)-N-(2-fluoro-5-(2-(2-hydroxyethoxy)-6-morpholinopyridin-4-yl)-4-methylphenyl)piperidine-1-carboxamide] | < 10 nM | 10 to 100 nM
6 | Cc1cc(F)c(NC(=O)N2CCOC(C(F)(F)F)C2)cc1-c1cc(OCCO)nc(N2CCOCC2)c1 (racemic) [Example 10, (RS)-N-(2-fluoro-5-(2-(2-hydroxyethoxy)-6-morpholinopyridin-4-yl)-4-methylphenyl)-2-(trifluoromethyl)morpholine-4-carboxamide] | < 10 nM | 10 to 100 nM
7 | Cc1cc(F)c(NC(=O)N2CCNC(C(C)(C)C)C2)cc1-c1cc(OCCO)nc(N2CCOCC2)c1 (racemic) [Example 11, (RS)-3-(tert-butyl)-N-(2-fluoro-5-(2-(2-hydroxyethoxy)-6-morpholinopyridin-4-yl)-4-methylphenyl)piperazine-1-carboxamide] | 10 to 100 nM | 100 to 1000 nM
8 | Cc1cc(F)c(NC(=O)N2CC[C@@H](C(F)(F)F)C2)cc1-c1cc(OCCO)nc(N2CCOCC2)c1 [Example 1, (R)-N-(2-fluoro-5-(2-(2-hydroxyethoxy)-6-morpholinopyridin-4-yl)-4-methylphenyl)-3-(trifluoromethyl)pyrrolidine-1-carboxamide] | < 10 nM | 10 to 100 nM
9 | Cc1cc(F)c(NC(=O)N2CC[C@H](C(F)(F)F)C2)cc1-c1cc(OCCO)nc(N2CCOCC2)c1 [Example 2, (S)-N-(2-fluoro-5-(2-(2-hydroxyethoxy)-6-morpholinopyridin-4-yl)-4-methylphenyl)-3-(trifluoromethyl)pyrrolidine-1-carboxamide] | < 10 nM | 10 to 100 nM
10 | Cc1cc(F)c(NC(=O)NCCC(C)(C)C)cc1-c1cc(OCCO)nc(N2CCOCC2)c1 [Example 6, 1-(3,3-dimethylbutyl)-3-(2-fluoro-5-(2-(2-hydroxyethoxy)-6-morpholinopyridin-4-yl)-4-methylphenyl)urea] | < 10 nM | 10 to 100 nM
11 | Cc1cc(F)c(NC(=O)N2CCOC(C(C)(C)C)C2)cc1-c1cc(OCCO)nc(N2CCOCC2)c1 (stereo not shown) [Example 9, 2-(tert-butyl)-N-(2-fluoro-5-(2-(2-hydroxyethoxy)-6-morpholinopyridin-4-yl)-4-methylphenyl)morpholine-4-carboxamide] | < 10 nM | 10 to 100 nM
